# Source: patent publication US5405873A, “Substituted acetamide derivatives” (Banyu Pharmaceutical Co., Ltd., priority 1992, dated 1995)
# Experiments:
# ACAT = ACAT inhibitory activity (rabbit liver microsomal fraction); type: biochemical, Japanese-White Rabbit; settings: [1-14C]oleyl-CoA and exogenous cholesterol
# Experimental: Enzyme specimen ACAT is prepared from liver microsomal fraction of Japanese-White Rabbit in accordance with the method described in Smith et al., Clinica Chimica Acta, 158, 271 (1986). The ACAT activity is determined by measuring the amount of labeled cholesterol esters from [1-^14 C]oleyl-CoA and exogenous cholesterol also according to the method of Smith et al., ibid. Thus, inhibition rates (%) of the compounds of the present invention against ACAT at a concentration of 0.3 μM are shown in the following table, together with the results of Melinamide (N-(α-methylbenzyl)linoleamide) and YM-17E (1,3-bis[[1-cycloheptyl-3-(p-dimethylaminophenyl)ureido]methyl]-benzene dihydrochloride), as reference compounds, measured at the same time.
# [1] = test system: absorption of cholesterol; assay: Cholesterol absorption inhibitory activity in rat; type: in vivo, Sprague-Dawley rats; settings: 100 mg/kg oral; [3H] cholesterol emulsion; serum radioactivity 4 hours after administration
# Experimental: Cholesterol absorption inhibitory activity is determined by the method described in Fukushima et al., Journal of Atherosclerosis Research, 10, 403 (1969).
# That is, Sprague-Dawley rats of 7 weeks age weighing 200 to 250 g are divided into groups at random and fed for 7 days with free access to diet. Then, the compound of the present invention and [^3 H] cholesterol emulsion (suspension of 6.96 mg of cholesterol and 177 mg of triolein in 0.8 ml of 6.8% skimmed milk aqueous solution) prepared into a dose indicated are forcedly given orally (Experiment Group).
# As a control group, the solvent used to suspend the compound of the present invention instead of the compound of the present invention in Experiment Group and [^3 H] cholesterol emulsion are forcedly administered orally.
# Four hours after administration, blood is collected from the tail. The cholesterol absorption inhibitory activity of the compound is determined in terms of the radiation activity of [^3 H) observed in serum by comparing between the control group and the experiment group. Inhibition rate (%) at 100 mg/kg is calculated and the results are shown in the following table together with the result of YM-17E used as a reference compound.
Compound,Inhibition Rate at 0.3 μM (ACAT) [%],Inhibition Rate at 100 mg/kg [1] [%]
"CCCCCN(C/C=C/C#CC(C)(C)C)CCNC(=O)CSc1cccc2ccccc12 [Example 1, (E)-N-[2-[N'-Pentyl-(6,6-dimethyl-2-hepten-4-ynyl)amino]ethyl]-(1-naphthylthio)acetamide]",70,–
"CN(C)c1ccc(NC(=O)N(Cc2cccc(CN(C(=O)Nc3ccc(N(C)C)cc3)C3CCCCCC3)c2)C2CCCCCC2)cc1.Cl.Cl [YM-17E, 1,3-bis[[1-cycloheptyl-3-(p-dimethylaminophenyl)ureido]methyl]-benzene dihydrochloride, reference compound]",50,63
"CCCCCN(CC#CC#CC(C)(C)C)CCNC(=O)CS(=O)(=O)c1cccc2ccccc12 [Example 30, N-[2-[N'-Pentyl-(6,6-dimethyl-2,4-heptadiynyl)amino]ethyl]-(1-naphthylsulfonyl)acetamide]",75,–
"CCCCCN(CC#CC#CC(C)(C)C)CCNC(=O)CSc1c2ccccc2cc2ccccc12 [Example 26, N-[2-[N'-Pentyl-(6,6-dimethyl-2,4-heptadiynyl)amino]ethyl]-(9-anthrylthio)acetamide]",66,–
"CCCCCN(C/C=C/C#CC(C)(C)C)CCNC(=O)CSc1ccc2ccccc2c1 [Example 6, (E)-N-[2-[N'-Pentyl-(6,6-dimethyl-2-hepten-4-ynyl)amino]ethyl]-(2-naphthylthio)acetamide]",–,73
"CCCCCN(CC#CC#CC(C)(C)C)CCNC(=O)CSc1ccc2oc3ccccc3c2c1 [Example 24, N-[2-[N'-Pentyl-(6,6-dimethyl-2,4-heptadiynyl)amino]ethyl]-(2-dibenzofuranylthio)acetamide]",64,–
"CCCCCN(CC#CC#CC(C)(C)C)CCNC(=O)CSc1cccc2ccccc12 [Example 2, N-[2-[N'-Pentyl-(6,6-dimethyl-2,4-heptadiynyl)amino]ethyl]-(1-naphthylthio)acetamide]",76,–
"CCCCCN(CC#CC#CC(C)(C)C)CCNC(=O)CSc1ccc2ccccc2c1 [Example 4, N-[2-[N'-Pentyl-(6,6-dimethyl-2,4-heptadiynyl)amino]ethyl]-(2-napthylthio)acetamide]",78,–
"CCCCN(CC#CC#CC(C)(C)C)CCNC(=O)CSc1cccc2ccccc12 [Example 34, N-[2-[N'-Butyl-(6,6-dimethyl-2,4-heptadiynyl)amino]ethyl]-(1-naphthylthio)acetamide]",61,–
"CCCCCN(CC#CC#CC(C)(C)C)CCNC(=O)CSc1c(C)cccc1C [Example 11, N-[2-[N'-Pentyl-(6,6-dimethyl-2,4-heptadiynyl)amino]ethyl]-(2,6-dimethylphenylthio)acetamide]",87,–
"CCCCCN(CC#CC#CC(C)(C)C)CCNC(=O)C[S+]([O-])c1cccc2ccccc12 (stereo not shown) [Example 29, N-[2-[N'-Pentyl-(6,6-dimethyl-2,4-heptadiynyl)amino]ethyl]-(1-naphthylsulfinyl)acetamide]",70,–
"CCCCC/C=C\C/C=C\CCCCCCCC(=O)NC(C)c1ccccc1 (stereo not drawn) [Melinamide, N-(α-methylbenzyl)linoleamide, reference compound]",15,–
"CC(C)CCCN(CC#CC#CC(C)(C)C)CCNC(=O)CSc1cccc2ccccc12 [Example 36, N-[2-[N'-(4-Methylpentyl)-(6,6-dimethyl-2,4-heptadiynyl)amino]ethyl]-(1-naphthylthio)acetamide]",75,–
"CCCCCN(CC#CC#CC(C)(C)C)CCNC(=O)CSc1ccc(C)c(C)c1 [Example 10, N-[2-[N'-Pentyl-(6,6-dimethyl-2,4-heptadiynyl)amino]ethyl]-(3,4-dimethylphenylthio)acetamide]",84,–
"CCCCCN(CCCC#CC(C)(C)C)CCNC(=O)CSc1cccc2ccccc12 [Example 3, N-[2-[N'-Pentyl-(6,6-dimethyl-4-heptynyl)amino]ethyl]-(1-naphthylthio)acetamide]",68,–
